Assay results taken from US12187696B2, “Urea motif containing compounds and derivatives thereof as antibacterial drugs” (Technische Universität München, priority 2016, dated 2025).
In brackets after ≈: the same amount, converted by molar mass. Entries after “also recorded” stand apart in the source; their conditions may differ.

Assays:
[1] = tested on: Staphylococcus aureus IS050678; test: Minimal inhibitory concentration (MIC) assay; type: cell-based; conditions: Staphylococcus aureus IS050678 (clinical isolate); B medium
[2] = tested on: Staphylococcus aureus IS050611; test: Minimal inhibitory concentration (MIC) assay; type: cell-based; conditions: Staphylococcus aureus IS050611 (clinical isolate); B medium
Enterobacter aerogenes = test: Minimal inhibitory concentration (MIC) assay; type: cell-based; conditions: Klebsiella aerogenes, B medium
S. aureus NCTC8325 = test: Analysis of S. aureus NCTC8325 secretome; conditions: 0.5×MIC (PK/X17-1-150 0.15 μM, sorafenib 1.5 μM), 1.5 h
Bacillus subtilis = test: Minimal inhibitory concentration (MIC) assay; type: cell-based; conditions: LB medium
[3] = tested on: S. aureus NCTC 8325 persister cells; test: Persister cell assay I; type: cell-based; conditions: gentamicin-selected persisters in PBS; 70 h; 2.4 μM PK/X17-1-150, 24 μM sorafenib, 5 μg/mL ciprofloxacin
[4] = tested on: Staphylococcus aureus VA412350; test: Minimal inhibitory concentration (MIC) assay; type: cell-based; conditions: Staphylococcus aureus VA412350 (clinical isolate); B medium
[5] = tested on: S. aureus NCTC 8325 persister cells; test: Persister cell assay II; type: cell-based; conditions: TSB, with or without 30 μg/mL oxacillin; 20 h or 70 h; 2.4 μM PK/X17-1-150 or PK/X17-4-011, 24 μM sorafenib or PK/X17-2-011, 5 μg/mL ciprofloxacin
Experimental: Persister cell assay II. Tryptic soy broth (50 mL in 250 mL culture flasks) was inoculated 1:1000 with overnight cultures of NCTC 8325 and grown at 37° C. and 200 rpm until an OD600 of 4 was reached or overnight (ON). Serial dilution were prepared and plated to determine the cell numbers in the inoculum. […]. […] After 20 h (A) or 70 h (B) of treatment, cells were harvested, washed two times with PBS (10000×g, 3 min), serially diluted and plated on agar plates for determination of surviving cell numbers.

[6] = tested on: Mycobacterium tuberculosis H37Rv; test: Minimal inhibitory concentration (MIC) assay; type: cell-based; conditions: 7H9 medium
[7] = tested on: Enterobacter cloacae subsp. Cloacae; test: Minimal inhibitory concentration (MIC) assay; type: cell-based; conditions: B medium
[8] = tested on: Staphylococcus aureus USA300; test: Minimal inhibitory concentration (MIC) assay; type: cell-based; conditions: B medium
S. aureus NCTC 8325 = type: cell-based
[9] = tested on: Staphylococcus aureus VA418879; test: Minimal inhibitory concentration (MIC) assay; type: cell-based; conditions: Staphylococcus aureus VA418879 (clinical isolate); B medium
[10] = tested on: Staphylococcus aureus Bk95395; test: Minimal inhibitory concentration (MIC) assay; type: cell-based; conditions: Staphylococcus aureus Bk95395 (clinical isolate); B medium
[11] = tested on: Staphylococcus aureus Bk97296; test: Minimal inhibitory concentration (MIC) assay; type: cell-based; conditions: Staphylococcus aureus Bk97296 (clinical isolate); B medium
[12] = molecular target: T1, Signal peptidase IB enzyme (SpsB) (Staphylococcus aureus, UniProt P0A070); test: SpsB FRET peptidase assay with membrane fraction; conditions: for activity of SpsB: 100 μM compound, SpsB-containing membrane fraction of S. aureus, DMSO treated control 1.8 A·U/s; for SpsB peptidase activity (in words): FRET assay, 100 μM, compared to DMSO treated control
T1 sequence (P0A070 1-191): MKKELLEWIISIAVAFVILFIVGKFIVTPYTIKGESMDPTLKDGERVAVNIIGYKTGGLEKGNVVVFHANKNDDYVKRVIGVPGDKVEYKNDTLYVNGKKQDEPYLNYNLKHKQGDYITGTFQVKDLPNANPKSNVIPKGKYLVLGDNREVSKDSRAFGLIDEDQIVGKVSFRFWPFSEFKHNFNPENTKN

S. aureus Mu50 = test: Minimal inhibitory concentration (MIC) assay; type: cell-based; conditions: Staphylococcus aureus, B medium
[13] = tested on: Staphylococcus aureus NCTC8325; test: Minimal inhibitory concentration (MIC) assay; type: cell-based; conditions: for MIC: Staphylococcus aureus NCTC8325, B medium
Experimental: Minimum inhibitory concentrations (MICs) represent the lowest concentration of sample that will inhibit the visible growth of a microorganism after overnight incubation, and was obtained by a 96 well plate-based assay (Thermo Scientific) with serial dilutions of the probes tested. […] Bacteria were diluted in fresh medium to a concentration of 10^5 CFU/mL. In the case of all other bacteria species tested, fresh media was inoculated 1/10000 and directly used for testing. Diluted bacterial cultures (99 μL) were added to various concentrations of probe (1 μL of the respective stock in DMSO). A growth control containing DMSO (1 μL) and cultivated medium (99 μL) and a sterile control containing fresh medium (100 μL) were run on every 96 well plate in triplicates. After incubation at 37° C. with gentle shaking (200 rpm) for 24 h, the dilution series was analysed for microbial growth, usually indicated by turbidity and/or a pellet of bacteria at the bottom of the well. The lowest concentration in the dilution series at which no growth of bacteria could be observed by eye was defined as the minimum inhibitory concentration (MIC) of the probe. MIC values were determined by three independent experiments with at least triplicate runs for each concentration. […] Both compounds were tested against various bacterial strains. […] The assay was performed as described above.

[14] = tested on: Staphylococcus aureus VA402923; test: Minimal inhibitory concentration (MIC) assay; type: cell-based; conditions: Staphylococcus aureus VA402923 (clinical isolate); B medium
[15] = tested on: Mycobacterium smegmatis mc^2 155; test: Minimal inhibitory concentration (MIC) assay; type: cell-based; conditions: Mycolicibacterium smegmatis, MC^2155, LB medium
Pseudomonas aeruginosa = test: Minimal inhibitory concentration (MIC) assay; type: cell-based; conditions: B medium
Acinetobacter baumannii = test: Minimal inhibitory concentration (MIC) assay; type: cell-based; conditions: B medium

Row | Compound | MIC [1] [µM] | MIC [2] [µM] | MIC (Enterobacter aerogenes) [µM] | secretome (secreted proteins) vs DMSO (S. aureus NCTC8325) | MIC (Bacillus subtilis) [µM] | viable persister cells (CFU/mL) vs DMSO control [3] | MIC [4] [µM] | viable persister cells (CFU/mL) vs DMSO control [5] | MIC [6] [µM] | MIC [7] [µM] | MIC [8] [µM] | MIC [9] [µM] | MIC [10] [µM] | MIC [11] [µM] | activity of SpsB [12] [A·U/s] | MIC (S. aureus Mu50) [µM] | MIC [13] [µM] | MIC [14] [µM] | MIC [15] [µM] | MIC (Pseudomonas aeruginosa) [µM] | further results
1 | O=C(Nc1ccc2c(c1)OC(F)(F)O2)Nc1ccc(Cl)c(C(F)(F)F)c1 [Example 4, 1-(4-Chloro-3-(trifluoromethyl)phenyl)-3-(2,2-difluorobenzo[d][1,3]dioxol-5-yl)urea] | 0.3 (≈ 0.118 µg/mL) | 0.3 (≈ 0.118 µg/mL) | > 100 | Essential cell wall biosynthesis proteins are among the processed proteins; also recorded: strong increase of extracellular proteins | 1 (≈ 0.395 µg/mL) | significant reduction of viable cells | 0.3 (≈ 0.118 µg/mL) | significant reduction of viable cells | 2 (≈ 0.789 µg/mL) | > 100 | 0.3 (≈ 0.118 µg/mL) | 0.3 (≈ 0.118 µg/mL) | 0.3 (≈ 0.118 µg/mL) | 0.3 (≈ 0.118 µg/mL) | 4.3 | 0.3 (≈ 0.118 µg/mL) | 0.3 (≈ 0.118 µg/mL) | 0.3 (≈ 0.118 µg/mL) | 1 (≈ 0.395 µg/mL) | > 100 | resistance development on serial passaging (S. aureus NCTC 8325; S. aureus NCTC 8325, subinhibitory levels, 27 days, listed as PK/X17-1-150): did not induce resistance; also recorded: no resistant development; activity against S. aureus that developed resistance against sorafenib (S. aureus NCTC 8325; preliminary results): still active; SpsB peptidase activity (in words) ([12]; listed as PK/X17-1-150): increased SpsB peptidase activity; also recorded: stimulates peptidase activity; IC50 ([13]; Staphylococcus aureus, NCTC8325, inhibition of bacterial growth of S. aureus NCTC 8325, obtained by MIC assay): 300 nM; MIC (Acinetobacter baumannii): 10 µM (≈ 3.95 µg/mL)
2 | CNC(=O)c1cc(Oc2ccc(NC(=O)Nc3ccc(Cl)c(C(F)(F)F)c3)cc2)ccn1 [Sorafenib, reference compound] | 5 (≈ 2.32 µg/mL) | 3 (≈ 1.39 µg/mL) | > 100 | SpsB substrates are secreted; also recorded: strong increase of extracellular proteins | 5 (≈ 2.32 µg/mL) | significant reduction of viable cells | 5 (≈ 2.32 µg/mL) | significant reduction of viable cells | 25 (≈ 11.6 µg/mL) | > 100 | 3 (≈ 1.39 µg/mL) | 5 (≈ 2.32 µg/mL) | 5 (≈ 2.32 µg/mL) | 5 (≈ 2.32 µg/mL) | 2.6 | 3 (≈ 1.39 µg/mL) | 3 (≈ 1.39 µg/mL) | 5 (≈ 2.32 µg/mL) | 6 (≈ 2.79 µg/mL) | > 100 | first signs of lower sensitivity (S. aureus NCTC 8325; serial passaging of S. aureus): ≤ 5 days; increase of minimal inhibitory concentration (factor) (S. aureus NCTC 8325; serial passaging, within the first 10 days): 40; SpsB peptidase activity (in words) [12]: increased SpsB peptidase activity; also recorded: stimulates peptidase activity; MIC (Acinetobacter baumannii): > 100 µM
